The target in the assay is BRD4 (Homo sapiens, UniProt O60885). Put plainly: Time Resolved Fluorescence Resonance Energy Transfer (TR-FRET) binding assay, BRD4. The following applies: one of the FRET assays described; read-out: FRET BRD4 IC50.

The record followed here is US10112941B2, “Tricyclic compounds as anticancer agents” (BRISTOL-MYERS SQUIBB COMPANY, priority 2013, dated 2018).

As to `[2H]C([2H])([2H])c1nnn(C)c1-c1cnc2c3c(S(C)(=O)=O)cc(F)c(F)c3n(C(c3ccccc3)C3CCC(F)(F)CC3)c2c1` (single isomer, unassigned) [Example 164, 5-{5-[(4,4-Difluorocyclohexyl)(phenyl)methyl]-6,7-difluoro-9-methanesulfonyl-5H-pyrido[3,2-b]indol-3-yl}-4-(^2H3)methyl-1-methyl-1H-1,2,3-triazole], the IC50 is under 5 nM.

In the case of `Cc1nnn(C)c1-c1cnc2c3ccc(C(C)(C)O)cc3n(C(c3cc(Cl)ccn3)C3CCOCC3)c2c1` (single isomer, unassigned) [Example 298], the IC50 is under 25 nM.

Take `Cn1nncc1-c1cnc2c3ccc(S(C)(=O)=O)cc3n([C@H](c3ccccc3)C3CCOCC3)c2c1` [Example 453, 5-{7-Methanesulfonyl-5-[(S)-oxan-4-yl(phenyl)methyl]-5H-pyrido[3,2-b]indol-3-yl}-1-methyl-1H-1,2,3-triazole]: the IC50 is under 5 nM.

Take `[2H]C([2H])([2H])c1nnn(C)c1-c1cnc2c3c(OC)cc(S(C)(=O)=O)cc3n([C@H](c3ccccc3F)C3CCOCC3)c2c1` [Example 198, 5-{5-[(S)-(2-Fluorophenyl)(oxan-4-yl)methyl]-7-methanesulfonyl-9-methoxy-5H-pyrido[3,2-b]indol-3-yl}-4-(^2H3)methyl-1-methyl-1H-1,2,3-triazole]: the IC50 was under 5 nM.

In the case of `Cc1nnn(C)c1-c1cnc2c3ccc(C(C)(C)O)c(F)c3n(C(c3ccccc3)C3CCOCC3)c2c1` (single isomer, unassigned) [Example 71, 2-[3-(Dimethyl-1H-1,2,3-triazol-5-yl)-6-fluoro-5-[oxan-4-yl(phenyl)methyl]-5H-pyrido[3,2-b]indol-7-yl]propan-2-ol], the IC50 is under 5 nM.

On to `Cc1noc(C)c1-c1cnc2c3c(C(C)(C)O)cccc3n(Cc3ccccc3)c2c1` [Example 53, 2-[5-Benzyl-3-(dimethyl-1,2-oxazol-4-yl)-5H-pyrido[3,2-b]indol-9-yl]propan-2-ol], for which the IC50 is under 1500 nM.

For `Cc1noc(C)c1-c1cnc2c3ccc(C(C)(C)O)cc3n([C@@H](CCC(F)(F)F)c3ccccn3)c2c1` [Example 23], the IC50 is under 5 nM.

Consider `C=C(C)c1ccc2c3ncc(-c4c(C)nnn4C)cc3n([C@H](c3ccccc3)C3CCOCC3)c2c1CO` [Example 356, [3-(Dimethyl-1H-1,2,3-triazol-5-yl)-5-[(S)-oxan-4-yl(phenyl)methyl]-7-(prop-1-en-2-yl)-5H-pyrido[3,2-b]indol-6-yl]methanol], for which the IC50 was under 5 nM.

Consider `Cc1cccnc1C(C1CCOCC1)n1c2cc(C(C)(C)O)ccc2c2ncc(-c3c(C)nnn3C)cc21` (single isomer, unassigned) [Example 302], for which the IC50 was under 5 nM.

Regarding `COc1ccnc([C@H](C2CCOCC2)n2c3cc(CS(C)(=O)=O)ccc3c3ncc(-c4c(C)nnn4C)cc32)c1` [Example 336], the IC50 was under 5 nM.

For the molecule `[2H]C([2H])([2H])c1nnn(C)c1-c1cnc2c3cc(F)c(C(C)(O)C4CC4)cc3n(C(c3cc(C)on3)C3CCOCC3)c2c1` (stereo not drawn) [Example 329], the IC50 is under 25 nM.

In the case of `Cc1nnn(C)c1-c1cnc2c3cc(Cl)c(C(C)(C)O)cc3n([C@H](c3ccccc3)C3CCOCC3)c2c1` [Example 409, 2-[8-Chloro-3-(dimethyl-1H-1,2,3-triazol-5-yl)-5-[(S)-oxan-4-yl(phenyl)methyl]-5H-pyrido[3,2-b]indol-7-yl]propan-2-ol], the IC50 is under 5 nM.

Regarding `COCC(c1ccccc1)n1c2cc(C(C)(C)O)ccc2c2ncc(-c3c(C)noc3C)cc21` (stereo not drawn) [Example 5], the IC50 was under 5 nM.

Take `Cc1nnn(C)c1-c1cnc2c3ccc(C(C)(C)O)c(F)c3n(C(c3ncccc3F)C3CCOCC3)c2c1` (single isomer, unassigned) [Example 305]: the IC50 is under 5 nM.

Regarding `Cc1cc(C(C2CCOCC2)n2c3cc(C(C)(C)O)ccc3c3ncc(-c4c(C)nnn4C)cc32)no1` (single isomer, unassigned) [Example 287, 2-[3-(Dimethyl-1H-1,2,3-triazol-5-yl)-5-[(5-methyl-1,2-oxazol-3-yl)(oxan-4-yl)methyl]-5H-pyrido[3,2-b]indol-7-yl]propan-2-ol], the IC50 was under 25 nM.

Take `[2H]C([2H])([2H])c1nnn(C)c1-c1cnc2c3c(F)ccc(S(C)(=O)=O)c3n([C@H](c3ccccc3F)C3CCOCC3)c2c1` [Example 231, 5-{9-Fluoro-5-[(S)-(2-fluorophenyl)(oxan-4-yl)methyl]-6-methanesulfonyl-5H-pyrido[3,2-b]indol-3-yl}-4-(^2H3)methyl-1-methyl-1H-1,2,3-triazole]: the IC50 was under 5 nM.

In the case of `Cc1noc(C)c1-c1cnc2c3ccc(C(C)(C)O)cc3n(C(c3ccccc3)C3CCOCC3)c2c1` (single isomer, unassigned) [Example 1, 2-[3-(Dimethyl-1,2-oxazol-4-yl)-5-[oxan-4-yl(phenyl)methyl]-5H-pyrido[3,2-b]indol-7-yl]propan-2-ol], the IC50 was under 5 nM.

As to `[2H]c1c(C([2H])(C2CCOCC2)n2c3cc(C(C)(C)O)ccc3c3ncc(-c4c(C)noc4C([2H])([2H])[2H])cc32)noc1C([2H])([2H])[2H]` (stereo not drawn) [Example 328], the IC50 is under 25 nM.

As to `Cc1nnn(C)c1-c1cnc2c3ccc(C(C)(C)O)cc3n(C(c3ncccc3Cl)C3CCOCC3)c2c1` (single isomer, unassigned) [Example 303], the IC50 is under 5 nM.

On to `Cc1sc(=O)n(C)c1-c1cnc2c3ccc(C(C)(C)O)cc3n(C(c3ccccc3)C3CCOCC3)c2c1` (single isomer, unassigned) [Example 169, 4-[7-(2-Hydroxypropan-2-yl)-5-[oxan-4-yl(phenyl)methyl]-5H-pyrido[3,2-b]indol-3-yl]-3,5-dimethyl-2,3-dihydro-1,3-thiazol-2-one], for which the IC50 is under 5 nM.

Turning to `COc1cc2c3ncc(-c4c(C)nnn4C)cc3n([C@H](c3ccc(F)cc3)C3CCOCC3)c2cc1C(C)(C)O` [Example 353, 2-[3-(Dimethyl-1H-1,2,3-triazol-5-yl)-5-[(S)-(4-fluorophenyl)(oxan-4-yl)methyl]-8-methoxy-5H-pyrido[3,2-b]indol-7-yl]propan-2-ol], the IC50 is under 5 nM.

In the case of `Cc1nnn(C)c1-c1cnc2c3ccc(C(C)(C)O)cc3n(C(c3cccc(F)c3)C3CCOCC3)c2c1` (single isomer, unassigned) [Example 101, 2-[3-(Dimethyl-1H-1,2,3-triazol-5-yl)-5-[(3-fluorophenyl)(oxan-4-yl)methyl]-5H-pyrido[3,2-b]indol-7-yl]propan-2-ol], the IC50 is under 25 nM.

Take `Cc1noc(C)c1-c1cnc2c3ccc(C(C)(C)O)cc3n(C(c3cc(F)ccc3F)C3CCOCC3)c2c1` (single isomer, unassigned) [Example 140, 2-{5-[(2,5-Difluorophenyl)(oxan-4-yl)methyl]-3-(dimethyl-1,2-oxazol-4-yl)-5H-pyrido[3,2-b]indol-7-yl}propan-2-ol]: the IC50 is under 5 nM.

In the case of `[2H]C([2H])([2H])c1nnn(C)c1-c1cnc2c3ccc(C(C)(C)O)c(Cl)c3n([C@H](c3ccccc3)C3CCOCC3)c2c1` [Example 393, 2-{6-Chloro-3-[4-(^2H3)methyl-1-methyl-1H-1,2,3-triazol-5-yl]-5-[(S)-oxan-4-yl(phenyl)methyl]-5H-pyrido[3,2-b]indol-7-yl}propan-2-ol], the IC50 is under 5 nM.

As a reminder, the IC50 is the concentration that gives 50% inhibition.
